The results in this text go back to ChEMBL document CHEMBL3399988, “Ritonavir-boosted indinavir but not lopinavir inhibits erythrocytic stage Plasmodium knowlesi malaria in rhesus macaques” (Bioorg Med Chem Lett, 2015).

The source made the active and inactive calls. The calls are words filed in the database; no cut-off is given here.

For assay [1], the system named is Plasmodium knowlesi. Briefly: Antimalarial activity against Plasmodium knowlesi infected Chinese rhesus macaques assessed as parasitemia level in blood smears at 40 mg/kg, intragastric treated 5 days before infection measured between day 0 to 7 by Giemsa-staining in presence of ritonavir 10 mg/kg, intragastric once daily. Type of assay: functional, organism-based.

For assay [2], the system named is Plasmodium knowlesi. Briefly: Antimalarial activity against Plasmodium knowlesi infected Chinese rhesus macaques assessed as parasitemia level in blood smears at 40 mg/kg, intragastric treated 5 days before infection measured between day 0 to 7 by Giemsa-staining in presence of ritonavir 5 mg/kg, intragastric twice daily. Type of assay: functional, organism-based.

For `Cc1cccc(C)c1OCC(=O)N[C@@H](Cc1ccccc1)[C@@H](O)C[C@H](Cc1ccccc1)NC(=O)[C@H](C(C)C)N1CCCNC1=O`, the inhibition entry in assay [1] was “inactive”.

Regarding `CC(C)(C)NC(=O)[C@@H]1CN(Cc2cccnc2)CCN1C[C@@H](O)C[C@@H](Cc1ccccc1)C(=O)N[C@H]1c2ccccc2C[C@H]1O`, in assay [2], the inhibition result was “Active”.
